Measurements reported in US6113896A, “Pharmaceutical compositions containing ecotin and homologs thereof” (priority 1994, dated 2000).
pKi: −log10 of the molar value. Values joined by “and” are separate entries in the source; they are usually repeats but may differ in a detail not shown here. Identical values can stand only once. “Also recorded” adds a separate entry of the source.

Assays:
FXa [1] = experiment: Ecotin·FXa dissociation rate constant (HLE trap); assay type: biochemical, human; settings: for koff (values in parenthesis): calculated from (Ki)·(kon); for koff: measured in presence of excess HLE to trap free ecotin
Experimental: Determination of FXa dissociation rate constant The dissociation rate constant of the ecotin.cndot.FXa complex was measured using HLE to trap the free ecotin released from the complex. FXa (10 μM) was incubated for 1 h in TNCT buffer in the presence and absence of ecotin (12.5 μM) and diluted 1000-fold into TNCT buffer with and without HLE (500 nM). Aliquots (180 μl ) were removed at various times and initial rates of free FXa were measured at 405 nm with 20 μl of 5 mM Spectrozyme fXa. The product curve (free FXa versus time) was fit to equation 6; the value for koff was determined by nonlinear regression analysis.
To measure the dissociation rate constant of ecotin from FXa, the complex was diluted 1000-fold into buffer containing a 50-fold excess of HLE to trap the free ecotin and prevent reassociation. In the absence of HLE, reassociation of ecotin with FXa was so rapid that free FXa was barely detectible (FIG. 4B). Progress of dissociation was monitored as the increase in hydrolysis rate of Spectrozyme fXa resulting from the increasing free FXa with time. Because HLE prevented reassociation the rate of dissociation of the E·I complex is given by equation (5): [formula] which upon integration gives equation (6): […]
where [E] is the free [FXa] at any time t, [E.cndot.I]0 is the concentration of the complex at time zero, and koff is the first order dissociation rate constant. The time dependent E·I complex dissociation curve fit to equation (6) by nonlinear regression analysis is shown in FIG. 4B; the dissociation rate constant for ecotin tested is shown above in Table I.

FXa [2] = experiment: Specificity assay, FXa; assay type: biochemical, human; settings: 100 nM inhibitor, ~1 h, 1.2 nM enzyme
Experimental: (§1) Specificity Assays The following assays were used to test the specificity of ecotin and the M84K and M84R mutants against various proteases. Ecotin, M84K, M84R (100 nM each), or a control blank were incubated at room temperature for ~1 h with each enzyme. The enzymes tested (enzyme concentration, buffer, substrate) were FXa (1.2 nM, Buffer A, 0.7 mM Spectrozyme fXa), thrombin (3.7 nM, Buffer A, 0.7 mM S2366), TF.cndot.FVIIa (12.0 nM, Buffer B, 0.7 mM S2366), FXIa (1.2 nM, Buffer A containing 1 mg/ml BSA, 0.7 mM S2366), activated protein C (4.3 nM, Buffer A, 0.7 mM S2366), plasmin (15 nM, Buffer A, 1 mM S2251), single chain t-PA (15 nM, Buffer A, 2.5 mM S2288), Factor XIIa (10 nM, Buffer A, 0.5 mM S2302, plasma kallikrein (10 nM, Buffer A, 0.5 mM S2302), HLE (17 nM, 0.1 M Tris, pH 7.5, 0.5 M NaCl and 0.005 % Triton X-100, 0.42 mM MeOSuc-AAPV-pNA) (SEQ ID NO:9), bovine trypsin (10 nM, Buffer A, 0.25 mM Spectrozyme fXa), and bovine chymotrypsin (10 nM, Buffer A, 1 mM Suc-AAPF-pNA) (SEQ ID NO:10). Buffer A contains 50 mM Tris, pH 7.5, 100 mM NaCl, 2 mM CaCl2 and 0.005% Triton X-100. Buffer B contains 50 mM Tris, pH 7.5, 100 mM NaCl, 10 mM CaCl2, 0.5% BSA, 60 nM TF1-243,and 1 mM CHAPS. The initial change in absorbance at 405 nm was monitored after addition of substrate. Controls lacking inhibitor and/or enzyme were also assayed to assess the uninhibited rates and the background substrate hydrolysis rates, respectively.

plasmin = experiment: Specificity assay, plasmin; assay type: biochemical, human; settings: for Percent Activity of Plasmin: 100 nM inhibitor, ~1 h, 15 nM enzyme
Experimental: as §1

human FXa = experiment: Equilibrium inhibition constant with Factor Xa (tight-binding analysis); assay type: biochemical; settings: for inhibition of FXa, in words: compared with wild type
Experimental: Determination of Equilibrium Inhibition Constants Apparent Ki values (Ki *) for the inhibition of the enzymes tested by ecotin and mutants were measured as follows. All reactions were performed at 25° C. Stock solutions of trypsin were quantitated by active site burst titration with MUGB as previously described (Jameson, G. W. et al., Biochem. J. 131:107-117 [1973]) using a Fluoroskan II plate reader at excitation wavelength of 355 nm and emission wavelength of 460 nm. Data was collected on a Macintosh SE20 using either Delta Soft II Fl v3.31 software (BioMetallics). Active site titrated trypsin was then used to quantitate ecotin active sites using BAPA as the substrate; a stoichiometry of 1:1 was assumed (Chung, C. H. et al., supra). Factor Xa, Factor XIIa, plasma kallikrein, or HLE were then quantitated by active site titration using ecotin as a standard, again assuming 1:1 stoichiometry. In addition, the concentration of HLE was quantitated by methods previously described using a calibrated stock of α1 -proteinase inhibitor to titrate the HLE active sites (Beatty, K. et al., J. Biol. Chem. 255:3931-3934 [1980]); the same HLE active site concentration was determined using both ecotin and α1 -proteinase inhibitor. The substate for FXa was Spectrozyme fXa (0.5 mM); the substrate for FXIIa (0.5 mM) and plasma kallikrein was S2302 (0.5 mM); the substrate for HLE was MeOSuc-Ala-Ala-Pro-Val-pNA (0.4 mM). There was good agreement upon comparison of the protein concentrations determined by amino acid analysis, Bradford analysis (Bradford, M. M. Anal. Biochem. 72:248-254 (1976) or active site titrations for trypsin, ecotin, FXa, FXIIa, plasma kallikrein, and HLE.
Therefore, apparent equilibrium dissociation values (Ki *) were determined using methods derived for tight-binding inhibitors (Morrison, J. F. Biochim. Biophys. Acta 185:269-286 [1969]), (Bieth, J. in Proteinase Inhibitors (Fritz, H., Tschesche, H., Greene, L. J. and Truscheit, E., Ed.) pp 463-469, Springer-Verlag, New York [1974]). Data were fit by nonlinear regression analysis to equation 1 and values for Ki * were determined. [formula] where α is the fractional activity (steady-state inhibited rate divided by the uninhibited rate), [Eo ] is the total enzyme concentration, and [Io ] is the total ecotin concentration. Since the inhibitor and substrate compete for the same site, the true Ki value is related to Ki^* by the expression Ki =Ki */(1+[S]/Km), where Km is the Michaelis constant for the substrate, and [S] is the substrate concentration.
a. […] Following a 1 hour incubation at room temperature to reach equilibration of the enzyme.cndot.inhibitor complex, 20 μl of 5 mM Spectrozyme fXa was added, and the steady-state rate of product formation measured by monitoring the change in absorbance at 405 nm. The Km for Spectrozyme fXa with FXa under these conditions was determined to be 0.23 mM by linear regression analysis of Lineweaver-Burke plots.

| Substance | half-life of ecotin·FXa complex in vitro (FXa [1]) | koff (values in parenthesis) (FXa [1]) | koff (FXa [1]) | koff (FXa [1]; listed as Wild type) | koff (FXa [1]; listed as ecotin) | Percent Activity of Factor Xa (FXa [2]) | Percent Activity of Plasmin (plasmin) | inhibition of plasmin, in words (plasmin; text statement) | inhibition of plasmin, in words (plasmin; text statement, listed as ecotin) | pKi (human FXa; apparent value, 0.5 mM Spectrozyme fXa, read-out: Ki* (apparent equilibrium dissociation value) with FXa) | inhibition of plasmin, in words (plasmin; listed as P1 Lys mutant) | inhibition of FXa, in words (human FXa) | inhibition of plasmin, in words (plasmin; listed as P1 Arg mutant) |
| --- | --- | --- | --- | --- | --- | --- | --- | --- | --- | --- | --- | --- | --- |
| Ecotin: E. coli periplasmic protein having the 142 amino acid residue sequence reported by McGrath et al.; recombinant, P1 Met84 | ca. 3 h | 2.2e-05 s⁻¹ | 6.5e-05 s⁻¹ | 6.5e-05 s⁻¹ | 6.5e-05 s⁻¹ | 0% | 100% | did not effectively inhibit | little or no inhibition | 10.27 and 10.33 | – | – | – |
| M84K | – | 4.5e-06 s⁻¹ | – | – | – | 2% | 9% | significant inhibition | – | – | significantly inhibited | slightly more potent as FXa inhibitors; also recorded: slightly more potent than the wild type inhibitor | – |
| M84R | – | 1e-06 s⁻¹ | – | – | – | 1% | 10% | significant inhibition | – | – | – | slightly more potent as FXa inhibitors; also recorded: slightly more potent than the wild type inhibitor | significantly inhibited |
